Test results taken from patent US20120142771A1, “BIPHENYLACETAMIDE DERIVATIVE” (Dainippon Sumitomo Pharma Co., Ltd., priority 2008, published 2012).

What was measured:
[1] = tested on: Crl: CD (SD) male rats; experiment: Evaluation of antidepressant effect (forced swimming, duration of immobility); type: in vivo
Excerpt: (§1) Meanwhile, there are no reports about animal models which provide a good clinical prediction to evaluate the improving efficacy for bipolar disorder. However, bipolar disorder comprises “manic state” and “depressive state”, and some animals are reported to be useful as a model to evaluate the improvement of each pathological condition individually. In general, an index of manic state is excessive hyperactivity induced by administering methamphetamine and chlordiazepoxide in combination, and that of depressive state is immobility induced by forced swimming.
Test 6: Evaluation of Antidepressant Effect
Test 6 is a typical test to evaluate the antidepressant activity of medicaments (Porsolt et al., Nature, 266: 730-732, 1977, Porsolt et al., Eur. J. Pharmacol., 47: 379-391, 1978). Crl: CD (SD) male rats (12 rats in each group, body weight 200-250 g) were forced to swim for 15 minutes in a water pool with 200 mm diameter. In the pool, water was filled up to a depth of 205 mm from the bottom of the pool, and thus the rats could not touch the bottom of the pool with their hind limbs. Fifteen minutes after the completion of the forced swimming, test compounds were orally administered to the rats. On the next day, the test compounds were administered to the rats at the same dose as the previous day, and the rats were put in the pool for 5 minutes at the same clock time as the previous day. […] The antidepressant effect was evaluated by calculating how long the duration of immobility was shortened against the control. To the control, 0.5% methylcellulose solution was administered.

[2] = tested on: subcutaneously pentetrazol-injected model (scPTZ); experiment: Subcutaneously pentetrazol-injected model (scPTZ) test; type: in vivo, mice; details: pentetrazol 85 mg/kg s.c. after 1 hour
Method in brief: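 Pentetrazol (85 mg/kg, s.c.) was injected one hour after oral test compound at 50 or 100 mg/kg in groups of three male Slc:ddY mice weighing 20-30 g; vehicle controls got 0.5% tragacanth or 0.5% methylcellulose.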

[3] = tested on: Slc: C57BL/6J male mice; experiment: Evaluation of antimanic effect (methamphetamine and chlordiazepoxide induced hyperactivity, locomotor distance); type: in vivo; details: methamphetamine 4 mg/kg and chlordiazepoxide 10 mg/kg i.p.
Excerpt: as §1
Test 7: Evaluation of Antimanic Effect
Test 7 evaluates the antimanic effect of medicaments. The evaluation system is a test system whose utility has been already confirmed with a known antimanic agent which is clinically used as a mood-stabilizing drug, not as a drug for treating schizophrenia (Arban et al., Behay. Brain Res., 158:123-132, 2005, Foreman et al., Pharmacol. Biochem. Behay., 89: 523-534, 2008). Test compounds were orally administered to Slc: C57BL/6J male mice (8 mice in each group, body weight 20-26 g). After 30 minutes of administration, methamphetamine (4 mg/kg) and chlordiazepoxide (10 mg/kg) were administered intraperitoneally. Then, the mice were allowed to move freely in an acrylic cage (W 360 mm×D 230 mm×H 310 mm) for 90 minutes. The locomotor distances of the mice were measured with Ethovision software (Ver. 3.1). Among the 90 minutes, the result of the latter 60 minutes with the exception of the first 30 minute's result for adaptation to the new environment was used as data of the locomotor distance. The antimanic effect was evaluated by calculating how long locomotor distance was shortened against the control. To the control mice, 0.5% methylcellulose solution was administered.

[4] = tested on: amygdala-kindling model; experiment: Amygdala-kindling model in rats; type: in vivo
Excerpt: Test 3: Test with Amygdala-Kindling Model in Rats
Test 3 evaluates the anticonvulsant action of medicaments in rats, besides mice in Tests 1 and 2. Animal model (kindling model) used herein is a very similar model to clinical findings of focal onset seizures (i.e. simple partial seizure, complex partial seizure, and secondarily generalized tonic-clonic seizure), which is known to provide excellent clinical prediction. A chronic electrode was implanted in the cortex (frontal and posterior regions) and the amygdala of Slc: Wistar male rats (body weight 250-300 g). One week after the above operation, electrical stimulation (50 Hz, 400 μA, 1 second) into the amygdala was conducted once a day for about two weeks. The stimulation condition was determined according to the method of Loscher et al. [Epilepsy Res., 40: 63-77 (2000)]. The stimulation was continued until the seizure stage 5 in the seizure severity stages according to the method of Racine et al. [Motor seizure. Electroenceph. Clin. Neurophysiol., 32:281-294 (1972)] was observed 10 consecutive times. Kindling model was thus completed. Then, test compounds (100 mg/kg) were orally administered to this model. After an hour of administration, the rats were evaluated based on three parameters, i.e., a threshold stimulus current to induce seizure (i.e. seizure threshold), the duration of afterdischrage observed on an electroencephalogram, and seizure severity (stage scores 1-5). The results of the seizure threshold and the afterdischarge duration were shown as average percentage of change from the pretreatment value obtained before the administration of each test compound. To the control rats, 0.5% tragacanth solution was administered. Minus means decreased or shortened.

[5] = tested on: 6 Hz psychomotor seizure model; experiment: 6 Hz psychomotor seizure model; type: in vivo, mice; details: mice
Method in brief: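 Anticonvulsant activity was tested in the 6 Hz psychomotor seizure model in mice, a model reflecting seizures resistant to current antiepileptic drugs. 30 minutes or an hour after dosing, corneal electrical stimulation (6 Hz, 32 mA, 3 seconds) was applied to provoke forelimb myoclonus, Straub tail and immobility. Control mice received 0.5% tragacanth solution, 0.5% methylcellulose solution or olive oil.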

[6] = oral administration at a dose of 100 mg/kg

## NC(=O)Cc1ccccc1-c1ccccc1F [Example 1, 2-(2′-Fluorobiphenyl-2-yl)acetamide]
[1]; 10 mg/kg oral
  The rate of the shortened duration of immobility (% control): 23.4 % control
[1]; 30 mg/kg oral
  The rate of the shortened duration of immobility (% control): 24.9 % control
[2]; Mus musculus, po, 1 h, 50 mg/kg oral, Slc: ddY male mice, 3 per group, observed 30 minutes for clonic convulsion, read-out: scPTZ (positive number/tested number) (converted)
  responders at 50 mg/kg: 66.7%
[2]; Mus musculus, po, 1 h, 100 mg/kg oral, Slc: ddY male mice, 3 per group, observed 30 minutes for clonic convulsion, read-out: scPTZ (positive number/tested number) (converted)
  responders at 100 mg/kg: 66.7%
[2]; mice, oral 50 or 100 mg/kg
  anticonvulsant action in subcutaneously pentetrazol-injected model (scPTZ) test: anticonvulsant action was observed
[3]; 30 mg/kg oral
  The rate of the shortened locomotor-distance (% control): 24.1 % control
[3]; 60 mg/kg oral
  The rate of the shortened locomotor-distance (% control): 43.8 % control
[3]; 100 mg/kg oral
  The rate of the shortened locomotor-distance (% control): 73.8 % control
[4]; 100 mg/kg oral, 1 hour after administration, average percentage of change from pretreatment value
  Seizure threshold (uA) Δ % change: 69.3%
[4]; 100 mg/kg oral, 1 hour after administration, change from pretreatment value, minus means shortened
  Afterdischarge duration (sec) Δ % change: −88%
[4]; 100 mg/kg oral, 1 hour after administration, stage scores 1-5
  Seizure severity score: 2.0
[4]; [6]
  efficacy against the amygdala-kindling model: potent efficacy
[5]; Mus musculus, 6 Hz psychomotor seizure model, oral, read-out: ED50
  ED50: 56.2 mg/kg
[5]; [6]
  efficacy in 6 Hz psychomotor seizure model: potent efficacy
[5]; oral, dose 100 mg/kg, 30 minutes or 1 hour after administration
  6 Hz (Positive number/tested number): 10/10/100
